Values quoted from earlier work, collected in patent publication US20080292714A1, “BONE TARGETING OF DEGRADABLE DRUG FILLED NANOPARTICLES” (Semafore Pharmaceuticals Inc., priority 2003, published 2008).

Columns and labels:
[1] = portion not accumulated in skeleton
[2] = tested on: C8 (mouse embryo fibroblasts transformed with Ela+ras) cells; conditions: 10 micromolar
[3] = target: T1, p53 (Mus musculus, UniProt P02340)
T1 construct: endogenous in cells; host or cells: living mice, C57BL and Balb/c strains
T1 sequence (P02340 whole entry): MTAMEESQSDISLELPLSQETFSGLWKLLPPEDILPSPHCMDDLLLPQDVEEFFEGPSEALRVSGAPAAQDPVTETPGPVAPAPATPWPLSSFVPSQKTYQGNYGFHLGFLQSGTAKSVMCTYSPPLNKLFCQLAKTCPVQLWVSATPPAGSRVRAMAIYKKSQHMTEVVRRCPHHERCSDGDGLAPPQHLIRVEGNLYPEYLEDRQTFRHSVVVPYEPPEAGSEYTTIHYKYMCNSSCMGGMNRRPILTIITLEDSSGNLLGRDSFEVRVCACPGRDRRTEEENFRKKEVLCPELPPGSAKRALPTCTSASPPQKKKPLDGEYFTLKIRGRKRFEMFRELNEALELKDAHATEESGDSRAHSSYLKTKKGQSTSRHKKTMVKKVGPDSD

Compound | time after administration at which excretion is almost complete [1] [h] | inhibition of apoptosis induced by doxorubicin, etoposide, Taxol, cytosine arabinoside, UV light, gamma radiation [2] | tumors or pathological lesions in gamma-irradiated survivors ([3]; 7 months post-irradiation) | weight loss versus controls ([3]; irradiated treated mice) | protective effect in p53-null mice treated with radiation ([3]; p53-null mice controls) | rescue from 60% killing doses of gamma radiation ([3]; single i.p. injection 2.2 mg/kg, 8 Gy C57BL, 6 Gy Balb/c)
O=P([O-])(O)CN(CCN(CP(=O)([O-])O)CP(=O)(O)O)CP(=O)([O-])O.[153Sm+3] [^153Sm-EDTMP] | ≤ 6 |  |  |  |  | 
Cc1ccc(C(=O)Cn2c3c(sc2=N)CCCC3)cc1 [pifithrin-α, 2-[2-imino-4,5,6,7-tetrahydro-1,3-benzothiazol-3(2H)-yl]-1-(4-methylphenyl)-1-ethanone] |  | inhibited apoptosis | no tumors or pathological lesions were found | less weight-loss than controls | no protective effect | completely rescued
